Measured values from US20250313565A1, “NEW INDAZOLE DERIVATIVES” (Hoffmann-La Roche Inc., priority 2022, published 2025).

Target: T1, EGFR LRCS (BaF3-LRCS cell line) (Homo sapiens, UniProt P00533, C797S/L858R)
T1 construct: host or cells: BaF3-LRCS cell line (kept under puromycin selection)
Assay: HTRF Phospho EGFR LRCS assay (cellular)
Assay type: cell-based
Conditions: BaF3-LRCS cells, 4 hours incubation, Phospho-EGFR HTRF readout
Protocol: HTRF Phospho EGFR LRCS assay (cellular)
BaF3-LRCS cell line were obtained from Crownbio (San Diego, CA, USA). Cells were maintained at 37° C., 5% C02 in RPMI ATCC (Gibco 31870)+2 mM Glutamine+0.5 μg/ml Puromycin supplemented with 10% fetal bovine serum (FBS) (Gibco).
Cells are transferred as above to Greiner Bio-One, Nr. 784-08 micro-titerplate at 20000 cells/well in 12.5 μl of growth medium/well after the plates had been pre-filled with 12.5 nl of DMSO solutions of the to be tested compounds (in dose response) or DMSO only. After spinning the plates at 300×g for 30 seconds the cells were incubated for 4 hours at 37 C, 5% CO2, 95% humidity. The cells were lysed by adding to the compound mix 4 µl/well of the supplemented lysis buffer (Cis-bio, Phospho-EGFR HTRF kit, 64EG1PEH), followed by incubation for 30 min at room temperature with shaking (400 rpm). The plates were then frozen and stored overnight at −80° C. On the next day and after thawing the plates, 4 μl of a mixture of anti-Phospho-EGFR Cryptate and of anti-Phospho-EGFR-d2 antibody solutions prepared in the supplied detection buffer was added to each well. The lidded plates were then incubated for 4 h at room temperature before reading the fluorescence emission at 616 and 665 nm using an Envision reader (Perkin Elmer). Data was analyzed in similar fashion as above using the normalized ratio of the 665 to 616 signals multiplied by 10000.

T1 sequence (P00533 25-1210 C797S/L858R): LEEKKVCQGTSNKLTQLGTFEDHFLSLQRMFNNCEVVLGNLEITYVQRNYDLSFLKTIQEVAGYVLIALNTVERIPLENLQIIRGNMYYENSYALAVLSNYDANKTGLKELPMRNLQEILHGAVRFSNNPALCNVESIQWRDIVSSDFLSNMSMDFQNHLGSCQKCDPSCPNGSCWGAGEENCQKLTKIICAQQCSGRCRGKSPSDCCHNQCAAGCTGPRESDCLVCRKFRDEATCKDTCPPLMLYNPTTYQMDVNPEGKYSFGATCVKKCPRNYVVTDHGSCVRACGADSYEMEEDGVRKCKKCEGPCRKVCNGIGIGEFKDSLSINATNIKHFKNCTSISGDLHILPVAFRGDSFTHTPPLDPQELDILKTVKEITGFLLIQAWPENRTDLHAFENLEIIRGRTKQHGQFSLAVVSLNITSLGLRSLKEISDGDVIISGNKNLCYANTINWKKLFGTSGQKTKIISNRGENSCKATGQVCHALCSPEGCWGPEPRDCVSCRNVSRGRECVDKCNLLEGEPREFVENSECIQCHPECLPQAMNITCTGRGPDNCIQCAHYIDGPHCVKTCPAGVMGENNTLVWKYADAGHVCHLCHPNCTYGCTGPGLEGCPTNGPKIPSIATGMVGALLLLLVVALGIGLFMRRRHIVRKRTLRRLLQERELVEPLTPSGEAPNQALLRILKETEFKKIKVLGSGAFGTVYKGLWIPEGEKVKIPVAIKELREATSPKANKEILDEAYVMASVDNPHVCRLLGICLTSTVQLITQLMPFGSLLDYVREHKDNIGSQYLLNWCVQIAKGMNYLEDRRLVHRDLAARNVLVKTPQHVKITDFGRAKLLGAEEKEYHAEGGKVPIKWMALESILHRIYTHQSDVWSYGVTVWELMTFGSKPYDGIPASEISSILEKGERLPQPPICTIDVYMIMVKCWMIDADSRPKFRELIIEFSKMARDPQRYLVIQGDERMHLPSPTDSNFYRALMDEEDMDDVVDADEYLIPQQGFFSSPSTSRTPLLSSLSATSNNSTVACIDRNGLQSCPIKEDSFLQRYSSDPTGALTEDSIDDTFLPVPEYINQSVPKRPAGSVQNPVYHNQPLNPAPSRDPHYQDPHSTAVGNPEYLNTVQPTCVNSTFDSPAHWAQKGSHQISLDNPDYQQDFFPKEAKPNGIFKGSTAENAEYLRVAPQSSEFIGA

SMILES | IC50 [nM]
Cc1c(-c2ccc(N3CCOCC3)cc2)cc(C(F)(F)F)c2cn(C(C(=O)Nc3nccs3)c3ncn4c3CCC43CC3)nc12 (stereo not drawn) [Example 2, 2-[7-Methyl-6-(4-morpholinophenyl)-4-(trifluoromethyl)indazol-2-yl]-2-spiro[6,7-dihydropyrrolo[1,2-c]imidazole-5,1′-cyclopropane]-1-yl-N-thiazol-2-yl-acetamide] | 45
Cc1c(-c2ccc(N3CCOCC3)cc2)cc(C(F)F)c2cn(C(C(=O)Nc3nccs3)c3ncn4c3CCC43CC3)nc12 (stereo not drawn) [Example 1, 2-[4-(Difluoromethyl)-7-methyl-6-(4-morpholinophenyl)indazol-2-yl]-2-spiro[6,7-dihydropyrrolo[1,2-c]imidazole-5,1′-cyclopropane]-1-yl-N-thiazol-2-yl-acetamide] | 20
Cc1c(-c2ccc(N3CCOCC3)cc2)cc(C(F)(F)F)c2cn(C(C(=O)Nc3nccs3)c3ncn4c3CCC4(C)C)nc12 (stereo not drawn) [Example 3, 2-(5,5-Dimethyl-6,7-dihydropyrrolo[1,2-c]imidazol-1-yl)-2-[7-methyl-6-(4-morpholinophenyl)-4-(trifluoromethyl)indazol-2-yl]-N-thiazol-2-yl-acetamide] | 45
